Assay results from paper PMC6468496 (2019).

Experiments:
Assay in all cases: fluorescence titration (ligand quenching)
Settings in all cases: 125 mM K+, 5 mM Mg2+; 40 mM HEPES pH 7.4, 25 °C, 50 nM ligand, RNA titrated, Hill fit
[1] = system: R10K6 (RNA, aptamer) GGGAGACGCAACUGAAUGAAAAUGUCAUUCAAGACUAGGUUGUGACUGCUUAGGCAGUUGUGGACGGCUAAGCCCACCAGAGGUCCGUAACUAGUCGCGUCAC
[2] = system: V17 (R10K6 with shortened P4) (RNA, aptamer) GGGAGACGCAACUGAAUGAAAAUGUCAUUCAAGACUAGGUUGUGACAAAGGUUGUGGACGGCUAAGCCCACCAGAGGUCCGUAACUAGUCGCGUCAC
[3] = system: V8 (R10K6 without stem P5a) (RNA, aptamer) GGGAGACGCAACUGAAUGAAAAUGUCAUUCAAGACUAGGUUGUGACUGCUUAGGCAGUUGUGGACACCAGAGGUCCGUAACUAGUCGCGUCAC
[4] = system: V4 (R10K6 without P5 and P5a) (RNA, aptamer) GGGAGACGCAACUGAAUGAAAAUGUCAUUCAAGACUAGGUUGUGACUGCUUAGGCAGUUGUAACUAGUCGCGUCAC
[5] = system: V10 (R10K6 with changed J5a/5) (RNA, aptamer) GGGAGACGCAACUGAAUGAAAAUGUCAUUCAAGACUAGGUUGUGACUGCUUAGGCAGUUGUGGACGGCUAAGCCCAAACAAAGUCCGUAACUAGUCGCGUCAC
[6] = system: V13 (R10K6 ∆P1∆P2) (RNA, aptamer) GACUAGGUUGUGACUGCUUAGGCAGUUGUGGACGGCUAAGCCCACCAGAGGUCCGUAACUAGUC
[7] = system: R10K6_V11 (RNA, aptamer) GGGAGACGCAACAGACUAGGUUGUGACUGCUUAGGCAGUUGUGGACGGCUAAGCCCACCAGAGGUCCGUAACUAGUCGCGUCAC

**Q.** `CCn1cc(C(=O)O)c(=O)c2cc(F)c(N3CCNCC3)cc21` was tested. Which binding [1] did it give?
**A.** yes

**Q.** `O=c1ccn(C2CC2)c2cc(N3CCNCC3)c(F)cc12` was tested. Which binding [1] did it give?
**A.** weak

**Q.** With `CN1C[C@@H]2C[C@H]1CN2c1cc2c(cc1F)c(=O)c(C(=O)O)cn2C1CC1` as the compound, how does the binding [1] read?
**A.** yes

**Q.** `CCN1CCN(c2cc3c(cc2F)c(=O)c(C(=O)O)cn3C2CC2)CC1` was tested. Which binding [1] did it give?
**A.** yes

**Q.** For `O=C(O)c1cn(C2CC2)c2cc(N3CCNCC3)c(F)cc2c1=O`, which binding [2] is on record?
**A.** no

**Q.** And the KD [3]?
**A.** 76 nM

**Q.** And the binding [4]?
**A.** no

**Q.** What about the KD [1] of the same compound?
**A.** 31 nM

**Q.** What about the KD [5] of the same compound?
**A.** 101 nM

**Q.** What about the KD [6] of the same compound?
**A.** 473 nM

**Q.** What about the KD [7] of the same compound?
**A.** 36 nM
